SMILES strings stand for the structures.

For experiment [1], the target named is Voltage-gated inwardly rectifying potassium channel KCNH2 (Homo sapiens, UniProt Q12809). Format: functional. Particulars: read-out: AC50.
In another experiment the target is Acetylcholinesterase (Homo sapiens, UniProt P22303). It counts as functional.
The target in experiment [2] is T1, Alpha-2A adrenergic receptor (Homo sapiens, UniProt P08913).
T1 sequence (P08913 whole entry): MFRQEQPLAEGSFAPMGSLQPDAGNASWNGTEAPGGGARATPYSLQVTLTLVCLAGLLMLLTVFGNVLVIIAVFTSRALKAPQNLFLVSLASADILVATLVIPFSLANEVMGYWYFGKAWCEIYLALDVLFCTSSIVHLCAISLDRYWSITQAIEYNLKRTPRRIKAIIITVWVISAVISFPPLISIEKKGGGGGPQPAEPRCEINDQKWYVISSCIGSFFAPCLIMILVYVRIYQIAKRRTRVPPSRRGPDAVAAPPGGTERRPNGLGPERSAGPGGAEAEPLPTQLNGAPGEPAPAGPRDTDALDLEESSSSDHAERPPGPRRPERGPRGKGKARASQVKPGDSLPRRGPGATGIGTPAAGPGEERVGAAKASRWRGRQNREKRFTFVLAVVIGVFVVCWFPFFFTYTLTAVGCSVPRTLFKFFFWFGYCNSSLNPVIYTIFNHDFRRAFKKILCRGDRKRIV

The target in experiment [3] is T2, Muscarinic acetylcholine receptor M2 (Homo sapiens, UniProt P08172).
T2 sequence (P08172 whole entry): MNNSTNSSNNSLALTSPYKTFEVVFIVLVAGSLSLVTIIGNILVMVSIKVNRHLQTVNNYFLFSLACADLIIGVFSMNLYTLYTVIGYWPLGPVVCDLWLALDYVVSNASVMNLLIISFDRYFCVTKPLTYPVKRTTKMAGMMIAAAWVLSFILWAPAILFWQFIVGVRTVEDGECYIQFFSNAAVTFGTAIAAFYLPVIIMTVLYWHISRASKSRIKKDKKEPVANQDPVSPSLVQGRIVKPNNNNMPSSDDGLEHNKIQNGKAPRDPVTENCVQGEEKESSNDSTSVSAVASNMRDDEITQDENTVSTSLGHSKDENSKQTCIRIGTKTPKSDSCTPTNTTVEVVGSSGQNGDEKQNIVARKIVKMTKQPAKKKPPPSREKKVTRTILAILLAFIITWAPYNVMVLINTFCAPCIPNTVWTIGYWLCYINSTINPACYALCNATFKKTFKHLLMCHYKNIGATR

In experiment [4] the target is cGMP-inhibited 3',5'-cyclic phosphodiesterase 3A (Homo sapiens, UniProt Q14432). It counts as functional.
For another experiment, the target named is T3, Progesterone receptor (Homo sapiens, UniProt P06401).
T3 sequence (P06401 whole entry): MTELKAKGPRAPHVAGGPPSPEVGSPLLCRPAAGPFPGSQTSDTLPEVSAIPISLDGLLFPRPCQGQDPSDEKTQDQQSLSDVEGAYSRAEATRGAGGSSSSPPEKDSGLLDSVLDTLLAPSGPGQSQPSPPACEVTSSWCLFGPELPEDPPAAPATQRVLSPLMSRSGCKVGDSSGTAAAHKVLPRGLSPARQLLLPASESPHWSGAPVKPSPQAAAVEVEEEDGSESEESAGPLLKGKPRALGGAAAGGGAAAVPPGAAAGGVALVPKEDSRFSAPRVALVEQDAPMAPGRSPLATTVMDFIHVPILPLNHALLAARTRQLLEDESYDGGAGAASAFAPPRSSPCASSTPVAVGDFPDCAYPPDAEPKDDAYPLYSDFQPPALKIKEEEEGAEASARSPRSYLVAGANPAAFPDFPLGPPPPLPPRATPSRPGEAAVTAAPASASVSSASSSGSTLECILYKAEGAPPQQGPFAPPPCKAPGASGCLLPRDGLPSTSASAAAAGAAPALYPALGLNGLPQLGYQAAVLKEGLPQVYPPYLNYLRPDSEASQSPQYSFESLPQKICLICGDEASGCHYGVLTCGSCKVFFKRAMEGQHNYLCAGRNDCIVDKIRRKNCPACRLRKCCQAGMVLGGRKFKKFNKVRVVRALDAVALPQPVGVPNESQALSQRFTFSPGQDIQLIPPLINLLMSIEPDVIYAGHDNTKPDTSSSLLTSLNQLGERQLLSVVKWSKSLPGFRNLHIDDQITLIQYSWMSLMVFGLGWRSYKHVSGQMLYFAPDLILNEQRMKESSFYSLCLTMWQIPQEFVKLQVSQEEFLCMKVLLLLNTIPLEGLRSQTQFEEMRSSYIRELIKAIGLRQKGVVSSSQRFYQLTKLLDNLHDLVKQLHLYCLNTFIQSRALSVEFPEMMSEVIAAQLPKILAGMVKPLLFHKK

Experiment [5] deals with Prostaglandin G/H synthase 1 (Homo sapiens, UniProt P23219). Format: functional.
The target in experiment [6] is Sodium-dependent noradrenaline transporter (Homo sapiens, UniProt P23975).
For experiment [7], the target named is Sodium-dependent dopamine transporter (Homo sapiens, UniProt Q01959).
The next experiment addresses T4, Thromboxane A2 receptor (Homo sapiens, UniProt P21731).
T4 sequence (P21731 whole entry): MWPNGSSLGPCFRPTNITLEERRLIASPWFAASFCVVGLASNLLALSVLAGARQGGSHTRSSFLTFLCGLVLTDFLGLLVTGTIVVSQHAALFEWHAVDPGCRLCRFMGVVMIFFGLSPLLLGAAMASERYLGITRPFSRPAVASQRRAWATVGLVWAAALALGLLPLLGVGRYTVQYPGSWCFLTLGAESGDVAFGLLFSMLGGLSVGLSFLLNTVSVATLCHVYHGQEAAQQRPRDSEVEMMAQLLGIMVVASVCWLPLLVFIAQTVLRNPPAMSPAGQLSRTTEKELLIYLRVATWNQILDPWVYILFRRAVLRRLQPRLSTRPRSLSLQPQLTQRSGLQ
It counts as functional, cell-based.
Note: assay procedure not described here.

Sequence of cGMP-inhibited 3',5'-cyclic phosphodiesterase 3A (Q14432 whole entry): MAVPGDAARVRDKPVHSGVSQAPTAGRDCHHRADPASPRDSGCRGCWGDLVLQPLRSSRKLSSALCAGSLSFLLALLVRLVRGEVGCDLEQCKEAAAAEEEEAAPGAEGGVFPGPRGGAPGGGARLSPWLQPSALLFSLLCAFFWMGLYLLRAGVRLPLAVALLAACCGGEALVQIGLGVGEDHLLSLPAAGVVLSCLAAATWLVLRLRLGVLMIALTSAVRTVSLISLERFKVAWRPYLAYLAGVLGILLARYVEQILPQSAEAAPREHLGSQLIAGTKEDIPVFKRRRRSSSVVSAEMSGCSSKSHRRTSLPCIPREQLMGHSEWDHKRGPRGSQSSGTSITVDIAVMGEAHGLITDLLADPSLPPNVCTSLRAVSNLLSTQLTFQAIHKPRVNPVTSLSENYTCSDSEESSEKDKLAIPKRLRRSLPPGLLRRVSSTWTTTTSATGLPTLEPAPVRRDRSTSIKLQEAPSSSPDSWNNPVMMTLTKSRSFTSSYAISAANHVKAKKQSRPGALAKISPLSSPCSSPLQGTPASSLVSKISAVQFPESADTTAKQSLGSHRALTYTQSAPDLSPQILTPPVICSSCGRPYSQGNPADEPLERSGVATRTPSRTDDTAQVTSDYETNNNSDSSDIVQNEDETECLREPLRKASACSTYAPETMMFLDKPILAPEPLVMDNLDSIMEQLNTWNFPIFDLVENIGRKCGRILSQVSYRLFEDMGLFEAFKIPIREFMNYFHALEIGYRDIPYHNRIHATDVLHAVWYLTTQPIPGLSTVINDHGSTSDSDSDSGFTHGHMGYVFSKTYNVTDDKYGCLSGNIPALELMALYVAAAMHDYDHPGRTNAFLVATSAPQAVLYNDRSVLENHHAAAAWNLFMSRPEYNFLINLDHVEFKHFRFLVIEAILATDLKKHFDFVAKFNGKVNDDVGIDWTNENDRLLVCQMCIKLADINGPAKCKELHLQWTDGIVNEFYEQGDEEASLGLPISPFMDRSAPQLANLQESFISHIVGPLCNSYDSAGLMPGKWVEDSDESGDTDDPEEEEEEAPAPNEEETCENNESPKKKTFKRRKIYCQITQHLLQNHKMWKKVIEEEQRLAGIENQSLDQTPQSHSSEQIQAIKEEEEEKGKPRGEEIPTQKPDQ
Sequence of Prostaglandin G/H synthase 1 (P23219 whole entry): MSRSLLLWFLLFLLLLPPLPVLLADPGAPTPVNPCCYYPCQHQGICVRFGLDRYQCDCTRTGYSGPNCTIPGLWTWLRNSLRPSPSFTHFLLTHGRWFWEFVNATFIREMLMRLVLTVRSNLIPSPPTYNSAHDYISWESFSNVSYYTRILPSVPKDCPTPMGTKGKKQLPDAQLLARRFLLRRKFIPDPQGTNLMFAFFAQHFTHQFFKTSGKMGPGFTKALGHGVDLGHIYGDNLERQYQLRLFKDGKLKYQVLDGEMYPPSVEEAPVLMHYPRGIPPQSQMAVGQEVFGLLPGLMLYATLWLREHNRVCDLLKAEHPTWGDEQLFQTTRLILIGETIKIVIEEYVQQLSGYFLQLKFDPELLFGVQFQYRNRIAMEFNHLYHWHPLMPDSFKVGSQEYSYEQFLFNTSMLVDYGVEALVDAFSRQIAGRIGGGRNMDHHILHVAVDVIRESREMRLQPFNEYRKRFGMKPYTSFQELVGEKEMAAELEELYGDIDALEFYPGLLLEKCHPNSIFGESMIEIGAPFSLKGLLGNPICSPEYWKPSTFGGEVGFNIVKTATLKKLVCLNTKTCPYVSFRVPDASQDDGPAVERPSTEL
Sequence of Voltage-gated inwardly rectifying potassium channel KCNH2 (Q12809 whole entry): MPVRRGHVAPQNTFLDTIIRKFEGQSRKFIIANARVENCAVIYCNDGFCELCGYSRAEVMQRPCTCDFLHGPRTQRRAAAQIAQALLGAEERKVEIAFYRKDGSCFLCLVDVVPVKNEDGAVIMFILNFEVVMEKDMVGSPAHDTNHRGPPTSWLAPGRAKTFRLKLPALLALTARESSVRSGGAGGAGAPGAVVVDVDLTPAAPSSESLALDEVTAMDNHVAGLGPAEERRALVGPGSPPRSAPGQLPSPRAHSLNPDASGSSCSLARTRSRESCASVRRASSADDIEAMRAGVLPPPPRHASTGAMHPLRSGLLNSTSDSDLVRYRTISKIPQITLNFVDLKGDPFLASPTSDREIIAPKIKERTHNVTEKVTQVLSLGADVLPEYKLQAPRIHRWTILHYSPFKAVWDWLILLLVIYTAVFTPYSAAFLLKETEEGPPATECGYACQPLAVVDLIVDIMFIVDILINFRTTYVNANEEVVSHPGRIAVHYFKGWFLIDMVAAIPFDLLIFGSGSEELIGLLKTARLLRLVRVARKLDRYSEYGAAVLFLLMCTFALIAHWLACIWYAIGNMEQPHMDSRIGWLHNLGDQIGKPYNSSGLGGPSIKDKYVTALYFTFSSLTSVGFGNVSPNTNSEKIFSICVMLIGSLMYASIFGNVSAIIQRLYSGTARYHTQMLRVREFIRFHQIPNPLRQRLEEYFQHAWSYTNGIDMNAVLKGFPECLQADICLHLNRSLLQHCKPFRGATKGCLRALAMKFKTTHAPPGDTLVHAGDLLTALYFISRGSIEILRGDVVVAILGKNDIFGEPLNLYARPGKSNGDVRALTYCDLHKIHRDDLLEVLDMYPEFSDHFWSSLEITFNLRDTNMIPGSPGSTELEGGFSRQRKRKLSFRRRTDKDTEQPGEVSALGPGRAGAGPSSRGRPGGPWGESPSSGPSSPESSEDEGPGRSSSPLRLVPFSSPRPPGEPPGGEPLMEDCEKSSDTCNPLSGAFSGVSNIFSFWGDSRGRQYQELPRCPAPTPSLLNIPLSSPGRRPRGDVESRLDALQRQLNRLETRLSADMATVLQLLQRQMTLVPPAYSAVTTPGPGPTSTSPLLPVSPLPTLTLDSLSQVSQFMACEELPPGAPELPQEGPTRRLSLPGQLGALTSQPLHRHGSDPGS
Sequence of Acetylcholinesterase (P22303 whole entry): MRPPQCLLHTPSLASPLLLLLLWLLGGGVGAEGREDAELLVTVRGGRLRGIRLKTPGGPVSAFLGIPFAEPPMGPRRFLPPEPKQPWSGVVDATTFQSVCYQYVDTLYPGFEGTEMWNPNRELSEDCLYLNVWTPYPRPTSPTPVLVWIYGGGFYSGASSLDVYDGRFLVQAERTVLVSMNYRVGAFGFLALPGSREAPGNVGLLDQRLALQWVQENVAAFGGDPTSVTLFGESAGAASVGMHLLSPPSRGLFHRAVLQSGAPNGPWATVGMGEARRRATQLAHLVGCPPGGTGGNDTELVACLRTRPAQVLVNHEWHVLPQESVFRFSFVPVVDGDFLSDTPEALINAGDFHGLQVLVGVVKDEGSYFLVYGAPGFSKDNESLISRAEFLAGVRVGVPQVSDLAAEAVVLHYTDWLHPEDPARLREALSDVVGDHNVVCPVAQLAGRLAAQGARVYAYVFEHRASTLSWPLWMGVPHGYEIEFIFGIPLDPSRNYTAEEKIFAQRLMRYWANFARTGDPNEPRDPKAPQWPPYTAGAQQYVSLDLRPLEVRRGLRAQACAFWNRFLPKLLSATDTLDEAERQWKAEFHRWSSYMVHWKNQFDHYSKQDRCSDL
Sequence of Sodium-dependent noradrenaline transporter (P23975 whole entry): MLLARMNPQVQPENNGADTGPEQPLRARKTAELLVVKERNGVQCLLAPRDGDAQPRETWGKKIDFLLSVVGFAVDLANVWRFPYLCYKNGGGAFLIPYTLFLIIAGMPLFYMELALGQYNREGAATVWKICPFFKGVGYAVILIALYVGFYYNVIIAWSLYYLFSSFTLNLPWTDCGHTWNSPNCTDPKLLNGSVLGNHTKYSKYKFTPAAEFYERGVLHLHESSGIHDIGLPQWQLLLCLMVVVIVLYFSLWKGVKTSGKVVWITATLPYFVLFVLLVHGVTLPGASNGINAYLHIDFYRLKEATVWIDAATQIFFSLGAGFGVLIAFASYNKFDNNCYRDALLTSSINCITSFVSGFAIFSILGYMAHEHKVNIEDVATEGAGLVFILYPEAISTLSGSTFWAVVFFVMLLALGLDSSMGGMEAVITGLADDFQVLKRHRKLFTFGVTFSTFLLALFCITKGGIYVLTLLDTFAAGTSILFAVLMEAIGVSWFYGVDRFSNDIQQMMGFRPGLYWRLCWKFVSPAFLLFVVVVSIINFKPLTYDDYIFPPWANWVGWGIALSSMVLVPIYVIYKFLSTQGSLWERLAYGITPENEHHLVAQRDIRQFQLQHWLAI
Sequence of Sodium-dependent dopamine transporter (Q01959 whole entry): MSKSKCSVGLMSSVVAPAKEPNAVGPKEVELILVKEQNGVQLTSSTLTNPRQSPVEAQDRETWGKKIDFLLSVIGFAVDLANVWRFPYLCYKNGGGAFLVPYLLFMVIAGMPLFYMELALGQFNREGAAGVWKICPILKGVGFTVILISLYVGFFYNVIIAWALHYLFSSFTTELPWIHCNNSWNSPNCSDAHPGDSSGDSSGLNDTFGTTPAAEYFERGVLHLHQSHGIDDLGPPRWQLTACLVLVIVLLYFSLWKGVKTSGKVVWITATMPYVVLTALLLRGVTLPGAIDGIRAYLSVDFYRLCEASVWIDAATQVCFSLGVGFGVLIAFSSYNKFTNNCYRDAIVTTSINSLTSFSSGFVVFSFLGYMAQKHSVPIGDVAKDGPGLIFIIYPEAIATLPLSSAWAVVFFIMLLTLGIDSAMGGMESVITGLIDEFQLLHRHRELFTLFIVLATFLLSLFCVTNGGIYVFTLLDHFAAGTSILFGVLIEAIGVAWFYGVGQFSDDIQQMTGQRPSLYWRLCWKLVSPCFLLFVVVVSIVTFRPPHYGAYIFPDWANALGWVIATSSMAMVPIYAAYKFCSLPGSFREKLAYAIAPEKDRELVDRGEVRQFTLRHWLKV

Consider `C[C@]12CC[C@H](O)CC1=CC[C@@H]1[C@@H]2CC[C@]2(C)C(c3cccnc3)=CC[C@@H]12` [ABIRATERONE], for which, in experiment [1], the AC50 (commonly the midpoint of the concentration-response curve, whichever way the signal moves) is over 30 µM.

Regarding `CN(C)C(=O)Oc1cc(OC(=O)N(C)C)cc(C(O)CNC(C)(C)C)c1` (centres undefined) [BAMBUTEROL], the half-maximal activity concentration (AC50) in experiment [1] stood at 16 µM.

For `CO[C@@]1(NC(=O)CSCC#N)C(=O)N2C(C(=O)O)=C(CSc3nnnn3C)CS[C@@H]21` [CEFMETAZOLE], the AC50 (at Acetylcholinesterase; in experiment [2]; in [3]; in experiment [1]; in experiment [4]; at Progesterone receptor) was over 30 µM throughout. Besides, the AC50 (in experiment [5]; in experiment [6]; in experiment [7]; on Thromboxane A2 receptor) was over 30 µM throughout.

Consider `NS(=O)(=O)c1cc(C2(O)NC(=O)c3ccccc32)ccc1Cl` (centres undefined) [CHLORTHALIDONE], for which the AC50 in experiment [1] is over 30 µM.

In the case of `O=C(O)CC(O)(CC(=O)O)C(=O)O` [CITRIC ACID], the AC50 (on Acetylcholinesterase; in experiment [2]; in experiment [3]; in [4]; on Progesterone receptor; in [5]) was over 30 µM each time. The AC50 (in experiment [6]; in [7]; on Thromboxane A2 receptor) was over 30 µM in each case.

With `CC[C@H]1OC(=O)[C@H](C)[C@@H](O[C@H]2C[C@@](C)(OC)[C@@H](O)[C@H](C)O2)[C@H](C)[C@@H](O[C@@H]2O[C@H](C)C[C@H](N(C)C)[C@H]2O)[C@](C)(OC)C[C@@H](C)C(=O)[C@H](C)[C@@H](O)[C@]1(C)O` [CLARITHROMYCIN], the AC50 (on Acetylcholinesterase; in [2]; in experiment [3]; in experiment [1]; in [4]; at Progesterone receptor) was over 30 µM each time. Also, the AC50 (in [5]; in experiment [6]; in experiment [7]; at Thromboxane A2 receptor) was over 30 µM in each case.

As for `C[C@@H]1CCC[C@H](C)N1NC(=O)c1ccc(Cl)c(S(N)(=O)=O)c1` [CLOPAMIDE], the AC50 in experiment [1] is over 30 µM.

As to `COc1ccc2c(c1)[C@]13CCCC[C@@H]1[C@H](C2)N(C)CC3` [DEXTROMETHORPHAN], in experiment [1], the AC50 was determined as 21.1 µM.

In the case of `O=c1oc2ccccc2c(O)c1Cc1c(O)c2ccccc2oc1=O` [DICUMAROL], the AC50 in experiment [1] was over 30 µM.

With `C[C@H]1O[C@@H](O[C@H]2[C@@H](O)C[C@H](O[C@H]3[C@@H](O)C[C@H](O[C@H]4CC[C@@]5(C)[C@H](CC[C@@H]6[C@@H]5CC[C@]5(C)[C@@H](C7=CC(=O)OC7)CC[C@]65O)C4)O[C@@H]3C)O[C@@H]2C)C[C@H](O)[C@@H]1O` [DIGITOXIN], the AC50 (on Acetylcholinesterase; in [2]; in [3]; in [1]; in experiment [4]; on Progesterone receptor) was over 30 µM throughout. Besides, the AC50 (in experiment [5]; in experiment [6]; in experiment [7]; at Thromboxane A2 receptor) was over 30 µM in each case.

As to `OC(CCCN1CCCCC1)(c1ccccc1)c1ccccc1` [DIPHENIDOL], the AC50 at Acetylcholinesterase was over 30 µM; in experiment [2], over 30 µM; in [3], 0.944 µM; in experiment [1], 16 µM; in [4], over 30 µM; on Progesterone receptor, over 30 µM. Further, the AC50 (in experiment [5]; in experiment [6]; in experiment [7]; on Thromboxane A2 receptor) was over 30 µM each time.

`O=C(CCCN1CC=C(n2c(=O)[nH]c3ccccc32)CC1)c1ccc(F)cc1` [DROPERIDOL]: the AC50 (on Acetylcholinesterase; in experiment [2]; in [3]; in experiment [4]; on Progesterone receptor; in [5]) was over 30 µM in each case. The AC50 (in [6]; in experiment [7]; at Thromboxane A2 receptor) was over 30 µM throughout.

In the case of `CCn1cc(C(=O)O)c(=O)c2cc(F)c(N3CCNCC3)nc21` [ENOXACIN], the AC50 (at Acetylcholinesterase; in experiment [2]; in [3]; in experiment [1]; in experiment [4]; on Progesterone receptor) was over 30 µM in each case. In addition, the AC50 (in experiment [5]; in experiment [6]; in experiment [7]; on Thromboxane A2 receptor) was over 30 µM each time.

On to `O=C(O)CSCC(=O)NC1CCSC1=O` (centres undefined) [ERDOSTEINE], for which the AC50 in experiment [1] is over 30 µM.

`COc1cccc(N(C)C(=S)Oc2ccc3c(c2)CCCC3)n1` [LIRANAFTATE]: the AC50 in experiment [1] is over 30 µM.

Take `C#C[C@]1(O)CC[C@H]2[C@@H]3CCc4cc(OC)ccc4[C@H]3CC[C@@]21C` [MESTRANOL]: the AC50 in experiment [1] is over 30 µM.

Regarding `N=C(N)c1ccc2cc(OC(=O)c3ccc(N=C(N)N)cc3)ccc2c1` [NAFAMOSTAT], in experiment [1], the AC50 came to 3.3 µM.

On to `CNC(=O)Oc1ccc2c(c1)[C@]1(C)CCN(C)[C@@H]1N2C` [PHYSOSTIGMINE], for which the AC50 is over 30 µM in [2]; over 30 µM in experiment [3]; over 30 µM in experiment [1]; over 30 µM in experiment [4]; over 30 µM at Progesterone receptor; 4.3 µM in experiment [5]. Moreover, the half-maximal activity concentration (AC50) (in [6]; in [7]; at Thromboxane A2 receptor) was over 30 µM in each case.

Turning to `O=C(O)c1cc(O)c2c3nc4ccccc4oc-3cc(=O)c2n1` [PIRENOXINE], the AC50 in [1] was over 30 µM.

For the molecule `NS(=O)(=O)c1cc(C(=O)O)cc(N2CCCC2)c1Oc1ccccc1` [PIRETANIDE], the AC50 in [1] is over 30 µM.

Consider `CNCCCC1c2ccccc2C=Cc2ccccc21` [PROTRIPTYLINE], for which the AC50 in experiment [1] was 1 µM.

For `CC(C)=CCOc1ccc(/C=C/C(=O)c2ccc(OCC=C(C)C)cc2OCC(=O)O)cc1` [SOFALCONE], the AC50 in experiment [1] was over 30 µM.

With `O=C(CCCN1CCC2(CC1)C(=O)NCN2c1ccccc1)c1ccc(F)cc1` [SPIPERONE], the AC50 in experiment [1] amounted to 0.22 µM.

`CN(C)c1cc(NC(=O)CNC(C)(C)C)c(O)c2c1C[C@H]1C[C@H]3[C@H](N(C)C)C(O)=C(C(N)=O)C(=O)[C@@]3(O)C(O)=C1C2=O` [TIGECYCLINE]: the AC50 in experiment [1] was over 30 µM.

Turning to `OCCN1CCN(CC/C=C2/c3ccccc3Sc3ccc(Cl)cc32)CC1` [ZUCLOPENTHIXOL], in experiment [1], the AC50 was 0.9 µM.
